What was measured:
Assay in all cases: relative viability (nuclei count vs DMSO), 5 days (fraction); higher = more cells survive
Fedratinib + Alpelisib = compound: Cc1cnc(Nc2ccc(OCCN3CCCC3)cc2)nc1Nc1cccc(S(=O)(=O)NC(C)(C)C)c1 [Fedratinib] + Cc1nc(NC(=O)N2CCC[C@H]2C(N)=O)sc1-c1ccnc(C(C)(C)C(F)(F)F)c1 [Alpelisib] (partner 2 µM)
Outline: (§1)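 Five library-drug doses in √10 steps were combined with a fixed anchor-drug dose, or a single drug was given alone, by pin tool to lung cancer cell lines in 1536-well plates the day after seeding. Nuclei were stained and counted after 5 days. Relative viability is the nuclei count in treated wells over that in vehicle wells, taken as the median of duplicate plates.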

GW-2580 + Vorinostat = compound: COC1=CC=C(C=C1)COC2=C(C=C(C=C2)CC3=CN=C(N=C3N)N)OC [GW-2580] + O=C(CCCCCCC(=O)Nc1ccccc1)NO [Vorinostat] (partner 1 µM)
Outline: as §1

Fedratinib + Lapatinib = compound: Cc1cnc(Nc2ccc(OCCN3CCCC3)cc2)nc1Nc1cccc(S(=O)(=O)NC(C)(C)C)c1 [Fedratinib] + CS(=O)(=O)CCNCc1ccc(-c2ccc3ncnc(Nc4ccc(OCc5cccc(F)c5)c(Cl)c4)c3c2)o1 [Lapatinib] (partner 2 µM)
Outline: as §1

GW-2580 + Decitabine = compound: COC1=CC=C(C=C1)COC2=C(C=C(C=C2)CC3=CN=C(N=C3N)N)OC [GW-2580] + Nc1ncn([C@H]2C[C@H](O)[C@@H](CO)O2)c(=O)n1 [Decitabine] (partner 2 µM)
Outline: as §1

GW-2580 + AZD7762 = compound: COC1=CC=C(C=C1)COC2=C(C=C(C=C2)CC3=CN=C(N=C3N)N)OC [GW-2580] + NC(=O)Nc1cc(-c2cccc(F)c2)sc1C(=O)N[C@H]1CCCNC1 [AZD7762] (partner 0.2 µM)
Outline: as §1

Row | Cell Line | relative viability (Fedratinib + Alpelisib; first compound 0.1 µM) | relative viability (Fedratinib + Alpelisib; first compound 0.3162 µM) | relative viability (Fedratinib + Alpelisib; first compound 1 µM) | relative viability (GW-2580 + Vorinostat; first compound 0.08 µM) | relative viability (GW-2580 + Vorinostat; first compound 0.8 µM) | relative viability (GW-2580 + Vorinostat; first compound 2.53 µM) | relative viability (GW-2580 + Vorinostat; first compound 8 µM) | relative viability (Fedratinib + Lapatinib; first compound 0.1 µM) | relative viability (Fedratinib + Lapatinib; first compound 0.3162 µM) | relative viability (Fedratinib + Lapatinib; first compound 1 µM) | relative viability (GW-2580 + Decitabine; first compound 0.08 µM) | relative viability (GW-2580 + Decitabine; first compound 0.8 µM) | relative viability (GW-2580 + Decitabine; first compound 2.53 µM) | relative viability (GW-2580 + Decitabine; first compound 8 µM) | relative viability (GW-2580 + AZD7762; first compound 0.08 µM) | relative viability (GW-2580 + AZD7762; first compound 0.8 µM) | relative viability (GW-2580 + AZD7762; first compound 2.53 µM) | relative viability (GW-2580 + AZD7762; first compound 8 µM)
1 | HCC-827 | 1.04 | 0.95 | 1.02 | 0.652 | 0.915 | 0.828 | 0.832 | 0.187 | 0.181 | 0.22 | 0.275 | 0.317 | 0.299 | 0.319 | 0.207 | 0.244 | 0.201 | 0.214
2 | HOP-62 | 0.941 | 0.759 | 0.89 | 0.736 | 0.73 | 0.539 | 0.731 | 0.969 | 0.88 | 0.904 | 0.174 | 0.192 | 0.231 | 0.23 | 0.664 | 0.74 | 0.571 | 0.424
3 | IA-LM | 0.563 | 0.758 | 0.658 |  | 1.21 | 0.851 | 1.07 | 0.873 | 0.632 | 0.46 |  |  |  |  |  |  |  | 
4 | LC-2-ad | 0.932 | 0.879 | 0.772 | 0.728 | 0.751 | 0.76 | 0.712 | 1.06 | 0.983 | 0.104 | 0.82 | 0.913 | 0.833 | 0.815 | 0.866 | 0.948 | 0.826 | 0.873
5 | LCLC-97TM1 | 0.201 | 0.288 | 0.189 | 0.806 | 0.74 | 0.659 | 0.684 | 1.14 | 0.711 | 0.938 | 0.241 | 0.224 | 0.213 | 0.209 | 0.2 | 0.285 | 0.281 | 0.212
6 | LCLC-103H | 1.07 | 0.816 | 0.938 | 0.753 | 0.851 | 0.791 | 0.671 |  |  |  | 0.752 | 0.724 | 0.661 | 0.706 | 0.884 | 0.838 | 0.648 | 0.716
7 | NCI-H441 | 0.607 | 0.655 | 0.557 | 0.913 | 0.951 | 0.68 | 0.783 |  |  |  | 0.207 | 0.198 | 0.243 | 0.222 | 1.13 | 1.26 | 1.06 | 1.08
8 | NCI-H520 | 0.912 | 0.845 | 0.805 | 0.935 | 0.651 | 0.768 | 0.682 | 0.86 | 0.717 | 0.18 | 0.501 | 0.489 | 0.524 | 0.545 |  |  |  | 
9 | NCI-H522 |  |  |  | 0.976 | 0.862 | 0.861 | 0.986 |  |  |  | 0.738 | 0.62 | 0.668 | 0.682 | 0.903 | 0.806 | 0.873 | 0.872
10 | NCI-H661 | 0.835 | 0.452 | 0.629 | 0.86 | 0.801 | 0.767 | 0.632 | 0.471 | 0.496 | 0.44 | 0.597 | 0.542 | 0.516 | 0.546 |  |  |  | 
11 | NCI-H1299 | 1.08 | 1.07 | 1.05 |  |  |  |  | 0.963 | 0.96 | 0.983 |  |  |  |  |  |  |  | 
12 | NCI-H1563 | 0.853 | 0.909 | 0.916 |  |  |  |  | 0.915 | 1.07 | 0.65 |  |  |  |  |  |  |  | 
13 | NCI-H1648 |  |  |  | 0.761 |  | 0.541 | 0.496 |  |  |  | 0.531 |  | 0.464 | 0.552 | 0.713 |  | 0.778 | 0.583
14 | NCI-H1650 |  |  |  | 0.541 | 0.901 | 0.457 | 0.586 | 0.548 | 0.925 | 0.183 | 0.502 | 0.396 | 0.468 | 0.372 |  |  |  | 
15 | NCI-H1703 | 0.161 | 0.361 | 0.25 |  |  |  |  | 0.675 | 0.834 | 0.667 |  |  |  |  | 0.115 | 0.128 | 0.122 | 0.108
16 | NCI-H1792 | 0.458 | 0.662 | 0.666 |  |  |  |  | 0.879 | 0.905 | 0.827 | 0.574 | 0.546 | 0.387 | 0.502 | 0.681 | 0.712 | 0.63 | 0.697
17 | NCI-H2009 | 1.21 | 1.2 | 1.1 | 0.774 | 0.834 | 0.702 | 0.679 | 0.915 | 1.02 | 0.171 | 0.415 | 0.427 | 0.378 | 0.482 |  |  |  | 
18 | NCI-H2023 | 0.578 | 0.629 | 0.56 | 0.812 | 0.882 | 0.598 | 0.762 | 0.897 | 0.75 | 0.083 | 0.22 | 0.239 | 0.222 | 0.296 |  |  |  | 
19 | NCI-H2228 | 0.59 | 0.842 | 0.747 | 0.605 | 0.759 | 0.539 | 0.509 | 1.04 | 1.07 | 0.22 |  |  |  |  |  |  |  | 
20 | NCI-H2342 |  |  |  | 0.711 | 0.75 | 0.625 | 0.751 |  |  |  | 0.673 | 0.654 | 0.692 | 0.735 | 0.585 | 0.481 | 0.497 | 0.444
21 | SK-LU-1 |  | 0.93 | 0.701 | 0.924 | 0.918 | 0.648 | 0.734 | 0.851 | 0.871 | 0.578 | 0.631 | 0.673 | 0.55 | 0.668 |  |  |  | 
22 | SK-MES-1 | 0.909 | 0.829 | 0.809 | 1.31 | 1.33 | 0.993 | 1.16 | 0.469 | 0.481 | 0.458 | 0.361 | 0.399 | 0.309 | 0.422 |  |  |  | 
23 | SW 900 |  |  |  | 0.53 | 0.517 | 0.419 | 0.528 |  |  |  | 0.467 | 0.45 | 0.422 | 0.472 | 0.68 | 0.616 | 0.574 | 0.557
24 | SW 1573 | 0.813 | 0.867 | 0.703 | 0.968 | 0.771 | 0.626 | 0.746 | 1.13 | 1.15 | 1.01 | 0.498 | 0.58 | 0.422 | 0.537 |  |  |  | 
